Measured values from ChEMBL document CHEMBL1781953, “Synthesis and antimycobacterial activity of 5-formylaminopyrimidines; analogs of antibacterial purines” (Bioorg Med Chem Lett, 2009).
Values after ≈ are worked out from the molar mass of the structure shown.

Tests used:
Staphylococcus aureus = experiment: Antibacterial activity against Staphylococcus aureus; type: functional
Escherichia coli = experiment: Antibacterial activity against Escherichia coli; type: functional
Vero = experiment: Cytotoxicity against african green monkey Vero cells after 72 hrs by MTT assay; type: cell-based; conditions: Chlorocebus sabaeus
[1] = Cytotoxicity against african green monkey Vero cells assessed as cell viability at 40 ug/mL after 72 hrs by MTT assay; type: cell-based; conditions: chlorocebus sabaeus, read-out: Activity
[2] = system: Mycobacterium tuberculosis; experiment: Antimycobacterial activity against Mycobacterium tuberculosis H37Rv ATCC 27294 by microplate alamar blue assay; type: functional, organism-based

| Compound | MIC (Staphylococcus aureus) [µg/mL] | MIC (Escherichia coli) [µg/mL] | EC50 (Vero) [µg/mL] | viability at 72 h, 40 ug/mL [1] [%] | IC50 [2] [µg/mL] | IC90 [2] [µg/mL] |
| --- | --- | --- | --- | --- | --- | --- |
| COc1ccc(CNc2nc([N+](=O)[O-])nc(-c3ccco3)c2NC=O)cc1 | > 64 | > 64 | > 40 | 62 | – | – |
| GENTAMICIN | 0.1 | – | – | – | – | – |
| COc1ccc(CNc2nc(C(F)(F)F)nc(-c3ccco3)c2NC=O)cc1 | – | – | – | – | 0.26 (≈ 0.663 µM) | 0.58 (≈ 1.48 µM) |
| COc1ccc(CNc2nc(Cl)nc(-c3ccco3)c2NC=O)cc1 | > 64 | > 64 | – | – | – | – |
| COc1ccc(CNc2nc(F)nc(-c3ccco3)c2NC=O)cc1 | > 64 | > 64 | – | – | – | – |
| COc1ccc(CNc2ncnc(-c3ccco3)c2NC=O)cc1 | > 64 | > 64 | – | – | – | – |
